The source of these data is patent US12540143B2, “Methods and compositions for targeted protein degradation” (Ranok Therapeutics (Hangzhou) Co. Ltd., priority 2019, dated 2026).

Counter-ions that a name gives are not always drawn.

The first test relates to MV4-11 cells. The test can be described thus: MV4-11 Cytotoxicity Assay. The class given is cell-based, human. Particulars: Homo sapiens, MV4-11, 72 h, read-out: MV4-11 cytotoxicity.
`CCc1cc(-c2nnc(C(N)=O)n2-c2ccc(CN3CCN(CC4CCN(C(=O)C[C@@H]5N=C(c6ccc(Cl)cc6)c6c(sc(C)c6C)-n6c(C)nnc65)CC4)CC3)cc2)c(O)cc1O` [Compound 106, (S)-4-(4-((4-((1-(2-(4-(4-chlorophenyl)-2,3,9-trimethyl-6H-thieno[3,2-f][1,2,4]triazolo[4,3-a][1,4]diazepin-6-yl)acetyl)piperidin-4-yl)methyl)piperazin-1-yl)methyl)phenyl)-5-(5-ethyl-2,4-dihydroxyphenyl)-4H-1,2,4-triazole-3-carboxamide, trifluoroacetic acid]: the IC50 was under 100 nM.

Staying with this test, now noted: Homo sapiens, MV4-11; 72 hr, CCK-8; read-out: MV4-11 cytotoxicity.
In the case of `Cc1sc2c(c1C)C(c1ccc(Cl)cc1)=N[C@@H](CCNCC1CCN(C(=O)C3CCN(Cc4ccc(-n5c(O)nnc5-c5cc(C(C)C)c(O)cc5O)cc4)CC3)C1)c1nnc(C)n1-2` (stereo partly drawn) [Compound 66, (3-(((2-((6S)-4-(4-chlorophenyl)-2,3,9-trimethyl-6H-thieno[3,2-f][1,2,4]triazolo[4,3-a][1,4]diazepin-6-yl)ethyl)amino)methyl)pyrrolidin-1-yl)(1-(4-(3-(2,4-dihydroxy-5-isopropylphenyl)-5-hydroxy-4H-1,2,4-triazol-4-yl)benzyl)piperidin-4-yl) methanone, trifluoroacetic acid], the IC50 was 100 to 1000 nM.

Take `Cc1sc2c(c1C)C(c1ccc(Cl)cc1)=N[C@@H](CC(=O)N1CCC(N3CCN(c4ccc(-n5c(O)nnc5-c5cc(C(C)C)c(O)cc5O)cc4)CC3)CC1)c1nnc(C)n1-2` [Compound 43, 2-((6S)-4-(4-chlorophenyl)-2,3,9-trimethyl-6H-thieno[3,2-f][1,2,4]triazolo[4,3-a][1,4]diazepin-6-yl)-1-(4-(4-(4-(3-(2,4-dihydroxy-5-isopropylphenyl)-5-hydroxy-4H-1,2,4-triazol-4-yl)phenyl)piperazin-1-yl)piperidin-1-yl)ethanone, trifluoroacetic acid]: the IC50 is under 100 nM.

In the case of `Cc1sc2c(c1C)C(c1ccc(Cl)cc1)=N[C@@H](CC(=O)N1CCC(CN3CCN(Cc4ccc(-n5c(O)nnc5-c5cc(C(C)C)c(O)cc5O)cc4F)CC3)CC1)c1nnc(C)n1-2` [Compound 17, (S)-2-(4-(4-chlorophenyl)-2,3,9-trimethyl-6H-thieno[3,2-f][1,2,4]triazolo[4,3-a][1,4]diazepin-6-yl)-1-(4-((4-(4-(3-(2,4-dihydroxy-5-isopropylphenyl)-5-hydroxy-4H-1,2,4-triazol-4-yl)-2-fluorobenzyl)piperazin-1-yl)methyl)piperidin-1-yl)ethan-1-one, trifluoroacetic acid], the IC50 was under 100 nM.

For the molecule `Cc1sc2c(c1C)C(c1ccc(Cl)cc1)=N[C@@H](CC(=O)NCCOCc1ccc(-n3c(O)nnc3-c3cc(C(C)C)c(O)cc3O)cc1)c1nnc(C)n1-2` [Compound 52, 2-((6S)-4-(4-chlorophenyl)-2,3,9-trimethyl-6H-thieno[3,2-f][1,2,4]triazolo[4,3-a][1,4]diazepin-6-yl)-N-(2-((4-(3-(2,4-dihydroxy-5-isopropylphenyl)-5-hydroxy-4H-1,2,4-triazol-4-yl)benzyl)oxy)ethyl)acetamide], the IC50 lay in the range of 100 to 1000 nM.

Consider `CCc1cc(-c2nnc(O)n2-c2ccc(CN3CCC(C(=O)N4CCC(CNCC[C@@H]5N=C(c6ccc(Cl)cc6)c6c(sc(C)c6C)-n6c(C)nnc65)CC4)CC3)cc2)c(O)cc1O` [Compound 68, (4-(((2-((6S)-4-(4-chlorophenyl)-2,3,9-trimethyl-6H-thieno[3,2-f][1,2,4]triazolo[4,3-a][1,4]diazepin-6-yl)ethyl)amino)methyl)piperidin-1-yl)(1-(4-(3-(5-ethyl-2,4-dihydroxyphenyl)-5-hydroxy-4H-1,2,4-triazol-4-yl)benzyl)piperidin-4-yl) methanone, trifluoroacetic acid], for which the IC50 fell in the range of 100 to 1000 nM.

Take `Cc1sc2c(c1C)C(c1ccc(Cl)cc1)=N[C@@H](CC(=O)NCCc1ccc(CN3CCC(Cc4ccc(-n5c(O)nnc5-c5cc(C(C)C)c(O)cc5O)cc4)CC3)cc1)c1nnc(C)n1-2` [Compound 98, (S)-2-(4-(4-chlorophenyl)-2,3,9-trimethyl-6H-thieno[3,2-f][1,2,4]triazolo[4,3-a][1,4]diazepin-6-yl)-N-(4-((4-(4-(3-(2,4-dihydroxy-5-isopropylphenyl)-5-hydroxy-4H-1,2,4-triazol-4-yl)benzyl)piperidin-1-yl)methyl)phenethyl)acetamide, trifluoroacetic acid]: the IC50 is under 100 nM.

Regarding `CCc1cc(-c2nnc(O)n2-c2ccc(CC3CCN(CC4CCN(C(=O)C[C@@H]5N=C(c6ccc(Cl)cc6)c6c(sc(C)c6C)-n6c(C)nnc65)CC4)CC3)cc2)c(O)cc1O` [Compound 88, (S)-2-(4-(4-chlorophenyl)-2,3,9-trimethyl-6H-thieno[3,2-f][1,2,4]triazolo[4,3-a][1,4]diazepin-6-yl)-1-(4-((4-(4-(3-(5-ethyl-2,4-dihydroxyphenyl)-5-hydroxy-4H-1,2,4-triazol-4-yl)benzyl)piperidin-1-yl)methyl)piperidin-1-yl)ethan-1-one, formic acid], the IC50 was under 100 nM.

Regarding `CCc1cc(-c2nnc(C(=O)NCCN(CC)CC)n2-c2ccc(CN3CCN(CC4CCN(C(=O)C[C@@H]5N=C(c6ccc(Cl)cc6)c6c(sc(C)c6C)-n6c(C)nnc65)CC4)CC3)cc2)c(O)cc1O` [Compound 104, (S)-4-(4-((4-((1-(2-(4-(4-chlorophenyl)-2,3,9-trimethyl-6H-thieno[3,2-f][1,2,4]triazolo[4,3-a][1,4]diazepin-6-yl)acetyl)piperidin-4-yl)methyl)piperazin-1-yl)methyl)phenyl)-N-(2-(diethylamino)ethyl)-5-(5-ethyl-2,4-dihydroxyphenyl)-4H-1,2,4-triazole-3-carboxamide, trifluoroacetic acid], the IC50 was under 100 nM.

With `Cc1sc2c(c1C)C(c1ccc(Cl)cc1)=N[C@@H](CC(=O)N[C@H](C)c1cccc(CN3CCC(Cc4ccc(-n5c(O)nnc5-c5cc(C(C)C)c(O)cc5O)cc4)CC3)c1)c1nnc(C)n1-2` [Compound 81, 2-((S)-4-(4-chlorophenyl)-2,3,9-trimethyl-6H-thieno[3,2-f][1,2,4]triazolo[4,3-a][1,4]diazepin-6-yl)-N—((R)-1-(3-((4-(4-(3-(2,4-dihydroxy-5-isopropylphenyl)-5-hydroxy-4H-1,2,4-triazol-4-yl)benzyl)piperidin-1-yl)methyl)phenyl)ethyl)acetamide, trifluoroacetic acid], the IC50 was under 100 nM.

Regarding `Cc1sc2c(c1C)C(c1ccc(Cl)cc1)=N[C@@H](CC(=O)N1CCC(Cc3ccc(CN(C)Cc4ccc(-n5c(O)nnc5-c5cc(C(C)C)c(O)cc5O)cc4)cc3)CC1)c1nnc(C)n1-2` [Compound 83, (S)-2-(4-(4-chlorophenyl)-2,3,9-trimethyl-6H-thieno[3,2-f][1,2,4]triazolo[4,3-a][1,4]diazepin-6-yl)-1-(4-(4-(((4-(3-(2,4-dihydroxy-5-isopropylphenyl)-5-hydroxy-4H-1,2,4-triazol-4-yl)benzyl)(methyl)amino)methyl)benzyl)piperidin-1-yl)ethan-1-one, trifluoroacetic acid], the IC50 was under 100 nM.

On to `Cc1sc2c(c1C)C(c1ccc(Cl)cc1)=N[C@@H](CC(=O)N(C)[C@H](C)c1ccc(CN3CCN(Cc4ccc(-n5c(O)nnc5-c5cc(C(C)C)c(O)cc5O)cc4)CC3)cc1)c1nnc(C)n1-2` [Compound 92, 2-((S)-4-(4-chlorophenyl)-2,3,9-trimethyl-6H-thieno[3,2-f][1,2,4]triazolo[4,3-a][1,4]diazepin-6-yl)-N—((R)-1-(4-((4-(4-(3-(2,4-dihydroxy-5-isopropylphenyl)-5-hydroxy-4H-1,2,4-triazol-4-yl)benzyl)piperazin-1-yl)methyl)phenyl)ethyl)-N-methylacetamide, trifluoroacetic acid], for which the IC50 is 100 to 1000 nM.

For `CCCc1cc(-c2nnc(C(=O)NCCN3CCCCC3)n2-c2ccc(CN3CCN(CC4CCN(C(=O)C[C@@H]5N=C(c6ccc(Cl)cc6)c6c(sc(C)c6C)-n6c(C)nnc65)CC4)CC3)cc2)c(O)cc1O` [Compound 123, (S)-4-(4-((4-((1-(2-(4-(4-chlorophenyl)-2,3,9-trimethyl-6H-thieno[3,2-f][1,2,4]triazolo[4,3-a][1,4]diazepin-6-yl)acetyl)piperidin-4-yl)methyl)piperazin-1-yl)methyl)phenyl)-5-(2,4-dihydroxy-5-propylphenyl)-N-(2-(piperidin-1-yl)ethyl)-4H-1,2,4-triazole-3-carboxamide, trifluoroacetic acid], the IC50 is under 100 nM.

On to `Cc1sc2c(c1C)C(c1ccc(Cl)cc1)=N[C@@H](CC(=O)N1CCC(CN3CCN(Cc4ccc(-n5c(S)nnc5-c5cc(C(C)C)c(O)cc5O)cc4)CC3)CC1)c1nnc(C)n1-2` [Compound 12, 2-((6S)-4-(4-chlorophenyl)-2,3,9-trimethyl-6H-thieno[3,2-f][1,2,4]triazolo[4,3-a][1,4]diazepin-6-yl)-1-(4-((4-(4-(3-(2,4-dihydroxy-5-isopropylphenyl)-5-mercapto-4H-1,2,4-triazol-4-yl)benzyl)piperazin-1-yl)methyl)piperidin-1-yl)ethanone, trifluoroacetic acid], for which the IC50 is under 100 nM.

`CCNC(=O)c1noc(-c2cc(C(C)C)c(O)cc2O)c1-c1ccc(CN2CCN(CC3CCN(C(=O)C[C@@H]4N=C(c5ccc(Cl)cc5)c5c(sc(C)c5C)-n5c(C)nnc54)CC3)CC2)cc1` [Compound 126, (S)-4-(4-((4-((1-(2-(4-(4-chlorophenyl)-2,3,9-trimethyl-6H-thieno[3,2-f][1,2,4]triazolo[4,3-a][1,4]diazepin-6-yl)acetyl)piperidin-4-yl)methyl)piperazin-1-yl)methyl)phenyl)-5-(2,4-dihydroxy-5-isopropylphenyl)-N-ethylisoxazole-3-carboxamide hydrochloride]: the IC50 is under 100 nM.

Regarding `Cc1sc2c(c1C)C(c1ccc(Cl)cc1)=N[C@@H](CC(=O)N1CCC(CN3CCN(Cc4ccc(-n5c(O)nnc5-c5cc(C(C)C)c(O)cc5O)cc4)CC3)CC1)c1nnc(C)n1-2` [Compound 103, (S)-2-(4-(4-chlorophenyl)-2,3,9-trimethyl-6H-thieno[3,2-f][1,2,4]triazolo[4,3-a][1,4]diazepin-6-yl)-1-(4-((4-(4-(3-(2,4-dihydroxy-5-isopropylphenyl)-5-hydroxy-4H-1,2,4-triazol-4-yl)benzyl)piperazin-1-yl)methyl)piperidin-1-yl)ethan-1-one acetate], the IC50 was under 100 nM.
